Earlier results on one compound are cited in patent US20200069618A1, “COMPOSITIONS HAVING AN AGENT AND AN ENHANCER THEREOF, METHODS OF USE, AND DELIVERY SYSTEMS” (priority 2018, published 2020).

Series [1] relates to rats. The settings on record: administration into the basal forebrain.
Series [2] concerns rats. The note with it: intercerebroventricular administration.

On to `CCCCC/C=C\C/C=C\C/C=C\C/C=C\CCCC(=O)NCCO` [anandamide, Anandamide], for which the levels of adenosine result in the series on rats [1] was “increase levels of adenosine”. Also, in the series with rats [2], the “slow-wave sleep and REM sleep” value was “increase slow-wave sleep and REM sleep”; the wakefulness entry is “decrease wakefulness”.
